Test results taken from patent US20180194762A1 (Pharmacyclics LLC, priority 2017, published 2018).
pIC50: −log10 of the molar value. Like-named read-outs stand apart in the source and are kept apart here.

What was measured:
Format in all cases: biochemical
[1] = biological target: T1, TEC (Homo sapiens, UniProt P42680); assay: Inhibition of a panel of kinases (in vitro HotSpot kinase assay, 33P-ATP, 1 μM ATP); conditions: for pIC50: HotSpot kinase assay, 1 μM ATP; for TEC/Btk: ratio of TEC IC50 to Btk IC50 (selectivity)
T1 sequence (P42680 1-631): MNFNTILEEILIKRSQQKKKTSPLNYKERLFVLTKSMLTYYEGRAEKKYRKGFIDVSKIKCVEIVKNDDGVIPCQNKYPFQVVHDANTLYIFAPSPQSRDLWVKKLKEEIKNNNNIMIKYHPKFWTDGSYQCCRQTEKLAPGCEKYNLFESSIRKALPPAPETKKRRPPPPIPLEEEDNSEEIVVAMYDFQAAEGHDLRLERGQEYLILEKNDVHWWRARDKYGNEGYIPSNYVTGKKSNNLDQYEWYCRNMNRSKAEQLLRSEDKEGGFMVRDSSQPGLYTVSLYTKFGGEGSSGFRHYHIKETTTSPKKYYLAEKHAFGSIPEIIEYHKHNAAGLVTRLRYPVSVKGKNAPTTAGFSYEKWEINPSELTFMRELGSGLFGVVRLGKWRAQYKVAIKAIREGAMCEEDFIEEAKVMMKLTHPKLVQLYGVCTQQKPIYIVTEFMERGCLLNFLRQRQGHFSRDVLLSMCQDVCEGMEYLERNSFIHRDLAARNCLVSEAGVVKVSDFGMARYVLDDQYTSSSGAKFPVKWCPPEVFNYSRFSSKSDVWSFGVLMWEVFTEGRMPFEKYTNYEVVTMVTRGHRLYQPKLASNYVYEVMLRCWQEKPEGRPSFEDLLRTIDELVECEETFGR
Summary of the method: (§1)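 Degree of kinase inhibition is determined in vitro using isolated enzymes, a matched substrate and radiolabelled ATP (1 μM).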

[2] = biological target: T2, panel of kinases (Homo sapiens, UniProt P51813); assay: Inhibition of a panel of kinases (in vitro HotSpot kinase assay, 33P-ATP, 1 μM ATP), other kinases; conditions: BMX wild-type, read-out: BMX-WT IC50
T2 sequence (P51813 1-675): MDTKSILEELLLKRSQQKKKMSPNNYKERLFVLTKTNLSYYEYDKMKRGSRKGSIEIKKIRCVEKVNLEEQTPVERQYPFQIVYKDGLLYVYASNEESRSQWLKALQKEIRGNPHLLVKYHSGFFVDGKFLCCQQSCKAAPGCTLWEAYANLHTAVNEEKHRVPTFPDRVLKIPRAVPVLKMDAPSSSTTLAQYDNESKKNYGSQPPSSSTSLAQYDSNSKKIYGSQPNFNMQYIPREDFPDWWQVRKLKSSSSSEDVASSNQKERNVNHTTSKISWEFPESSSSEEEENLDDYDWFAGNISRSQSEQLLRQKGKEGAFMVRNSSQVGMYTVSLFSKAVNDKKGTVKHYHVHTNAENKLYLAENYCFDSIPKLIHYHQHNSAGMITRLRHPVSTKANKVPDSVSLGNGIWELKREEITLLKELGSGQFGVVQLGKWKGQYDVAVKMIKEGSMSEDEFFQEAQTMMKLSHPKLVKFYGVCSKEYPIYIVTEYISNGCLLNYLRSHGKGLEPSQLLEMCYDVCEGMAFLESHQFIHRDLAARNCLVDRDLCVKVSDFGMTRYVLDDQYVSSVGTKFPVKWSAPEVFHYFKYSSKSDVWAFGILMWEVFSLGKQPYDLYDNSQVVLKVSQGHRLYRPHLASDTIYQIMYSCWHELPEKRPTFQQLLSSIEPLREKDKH
Summary of the method: as §1

[3] = biological target: T3, Btk (Homo sapiens, UniProt Q06187); assay: Btk in vitro inhibitory activity (one of Method A TR-FRET, Method B electrophoretic mobility shift, Method C radiometric filter binding)
T3 construct: purified from insect cells as a full-length construct containing a N-terminal 6X-His tag; His6 (N); made in house; host or cells: insect cells (Method C)
T3 sequence (Q06187 whole entry): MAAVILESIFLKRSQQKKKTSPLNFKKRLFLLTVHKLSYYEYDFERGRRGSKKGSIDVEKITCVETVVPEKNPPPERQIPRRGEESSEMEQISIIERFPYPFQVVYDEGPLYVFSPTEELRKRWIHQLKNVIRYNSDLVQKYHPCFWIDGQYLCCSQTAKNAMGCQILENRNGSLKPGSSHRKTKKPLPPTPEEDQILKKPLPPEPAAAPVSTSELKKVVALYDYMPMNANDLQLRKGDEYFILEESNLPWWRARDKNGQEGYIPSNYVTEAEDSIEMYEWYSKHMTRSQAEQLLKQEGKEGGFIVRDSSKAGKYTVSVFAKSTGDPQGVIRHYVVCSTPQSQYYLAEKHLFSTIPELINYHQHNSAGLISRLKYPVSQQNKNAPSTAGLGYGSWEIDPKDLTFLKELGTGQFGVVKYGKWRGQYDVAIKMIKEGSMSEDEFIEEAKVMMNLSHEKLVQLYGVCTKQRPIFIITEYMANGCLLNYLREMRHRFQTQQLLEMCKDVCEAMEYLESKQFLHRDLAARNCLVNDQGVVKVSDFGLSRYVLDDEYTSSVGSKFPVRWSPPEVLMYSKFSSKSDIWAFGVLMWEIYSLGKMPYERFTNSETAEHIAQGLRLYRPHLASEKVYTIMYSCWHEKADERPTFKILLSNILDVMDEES
Summary of the method: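 Method A: TR-FRET with 0.5 nM Btk at [ATP]=Km, EDTA-quenched, 665/615 nm ratio; Ki(app) converted to IC50. Method B: 1 nM full-length His6 human BTK, 1 μM FAM peptide, pH 7.5, mobility-shift product/sum ratio, 12-point 4-parameter fit. Method C: radiometric filter binding, 8 nM His-tagged BTK, 0.2 mg/mL poly-Glu-Tyr.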

[4] = method is one of A, B or C, not stated which, read-out: IC50 values against Btk
[5] = wild-type Btk, read-out: Btk-WT IC50

Row | SMILES | pIC50 [1] | TEC/Btk [1] | pIC50 [2] | pIC50 [3, 4] | pIC50 [3, 5]
1 | C[C@H]1CC[C@@H](Nc2n[nH]c3nccc(-c4ccc(CNC(=O)c5nc(C(C)(C)C)no5)c(F)c4)c23)CN1C1COC1 [Example 411, 3-tert-butyl-N-{[2-fluoro-4-(3-{[(3R,6S)-6-methyl-1-(oxetan-3-yl)piperidin-3-yl]amino}-1H-pyrazolo[3,4-b]pyridin-4-yl)phenyl]methyl}-1,2,4-oxadiazole-5-carboxamide] | 5.64 | – | 5.03 | – | 8.02
2 | CC(C)(C)c1noc(C(=O)NCc2ccc(-c3ccnc4[nH]nc(N5CC[C@H](N)C5)c34)cc2F)n1 [Example 159, N-[(4-{3-[(3S)-3-aminopyrrolidin-1-yl]-1H-pyrazolo[3,4-b]pyridin-4-yl}-2-fluorophenyl)methyl]-3-tert-butyl-1,2,4-oxadiazole-5-carboxamide] | 6.23 | 408 | 5.74 | > 8.00 | 8.84
3 | C[C@@H](NC(=O)c1cc(C(C)(C)O)on1)c1ccc(-c2ccnc3[nH]nc(N4CCS(=O)(=O)CC4)c23)cc1 [Example 406, N-[(1R)-1-{4-[3-(1,1-dioxo-1λ^6-thiomorpholin-4-yl)-1H-pyrazolo[3,4-b]pyridin-4-yl]phenyl}ethyl]-5-(2-hydroxypropan-2-yl)-1,2-oxazole-3-carboxamide] | 5.32 | – | 5.27 | – | 7.03
4 | C[C@@H](NC(=O)c1nc(C(C)(C)C)no1)c1ccc(-c2ccnc3[nH]nc(NC4CCCC4)c23)cc1 [Example 201, 3-tert-butyl-N-[(1R)-1-{4-[3-(cyclopentylamino)-1H-pyrazolo[3,4-b]pyridin-4-yl]phenyl}ethyl]-1,2,4-oxadiazole-5-carboxamide] | 5.08 | 818 | 5.17 | – | 7.99
5 | C=CC(=O)N1CC[C@@H](Nc2n[nH]c3nccc(-c4ccc([C@H](C)NC(=O)c5ccc(C(C)(C)C)cc5)cc4)c23)C1 [Example 97, 4-tert-butyl-N-[(1S)-1-[4-(3-{[(3R)-1-(prop-2-enoyl)pyrrolidin-3-yl]amino}-1H-pyrazolo[3,4-b]pyridin-4-yl)phenyl]ethyl]benzamide] | 5.80 | 5 | 6.15 | – | 6.51
6 | C=CC(=O)N1CC[C@@H](Nc2n[nH]c3nccc(-c4cccc(NC(=O)c5noc(C(C)(C)C)n5)c4C)c23)C1 [Example 267, 5-tert-butyl-N-[2-methyl-3-(3-{[(3R)-1-(prop-2-enoyl)pyrrolidin-3-yl]amino}-1H-pyrazolo[3,4-b]pyridin-4-yl)phenyl]-1,2,4-oxadiazole-3-carboxamide] | 6.05 | 005 | 6.26 | – | 6.79
7 | C=CC(=O)NC1CCN(c2n[nH]c3nccc(-c4ccc([C@@H](C)NC(=O)c5cc(C(C)(C)O)on5)cc4)c23)CC1 [Example 364, 5-(2-hydroxypropan-2-yl)-N-{(1R)-1-[4-(3-{4-[(prop-2-enoyl)amino]piperidin-1-yl}-1H-pyrazolo[3,4-b]pyridin-4-yl)phenyl]ethyl}-1,2-oxazole-3-carboxamide] | 5.03 | – | 5.24 | – | 7.26
8 | C=CC(=O)N1CC[C@@H](Nc2n[nH]c3nccc(-c4ccc(CNC(=O)c5ccc6oc(C)nc6c5)c(F)c4)c23)C1 [Example 380, (R)-N-{[2-fluoro-4-(3-{[1-(prop-2-enoyl)pyrrolidin-3-yl]amino}-1H-pyrazolo[3,4-b]pyridin-4-yl)phenyl]methyl}-2-methyl-1,3-benzoxazole-5-carboxamide] | 6.18 | – | 7.00 | – | 6.47
9 | C[C@H]1CC[C@@H](Nc2n[nH]c3nccc(-c4ccc(CNC(=O)c5noc(C(C)(C)C)n5)c(F)c4)c23)CN1C(=O)C1CC1 [Example 127, 5-tert-butyl-N-{[4-(3-{[(3R,6S)-1-cyclopropanecarbonyl-6-methylpiperidin-3-yl]amino}-1H-pyrazolo[3,4-b]pyridin-4-yl)-2-fluorophenyl]methyl}-1,2,4-oxadiazole-3-carboxamide] | 6.16 | 340 | 5.81 | > 8.00 | 8.69
10 | CC(C)(C)c1nc(NC(=O)Cc2ccc(-c3ccnc4[nH]nc(N[C@@H]5CCNC5)c34)cc2F)no1 [Example 123, N-(5-tert-butyl-1,2,4-oxadiazol-3-yl)-2-[2-fluoro-4-(3-{[(3R)-pyrrolidin-3-yl]amino}-1H-pyrazolo[3,4-b]pyridin-4-yl)phenyl]acetamide] | < 5.00 | – | < 5.00 | – | < 5.00

These reach a higher pIC50 [1]. Values come first.

Row | pIC50 [1] | TEC/Btk [1] | pIC50 [2] | pIC50 [3, 4] | pIC50 [3, 5] | SMILES
11 | 6.83 | 100 | 6.84 | > 8.00 | 8.83 | C=CC(=O)N1CC[C@@H](Nc2n[nH]c3nccc(-c4ccc(CNC(=O)c5cnc(C(C)C)o5)c(F)c4)c23)C1 [Example 176, N-{[2-fluoro-4-(3-{[(3R)-1-(prop-2-enoyl)pyrrolidin-3-yl]amino}-1H-pyrazolo[3,4-b]pyridin-4-yl)phenyl]methyl}-2-(propan-2-yl)-1,3-oxazole-5-carboxamide]
12 | 6.33 | 1028 | 6.51 | > 8.00 | 9.34 | C=CC(=O)N1CCC(Nc2n[nH]c3nccc(-c4ccc(CNC(=O)c5noc(C(C)(C)C)n5)c(F)c4)c23)CC1 [Example 105, 5-tert-butyl-N-{[2-fluoro-4-(3-{[1-(prop-2-enoyl)piperidin-4-yl]amino}-1H-pyrazolo[3,4-b]pyridin-4-yl)phenyl]methyl}-1,2,4-oxadiazole-3-carboxamide]
13 | 6.39 | 1 | 6.95 | – | 6.19 | C=CC(=O)N1CC[C@@H](Nc2n[nH]c3nccc(-c4ccc(NC(=O)Nc5noc(C(C)(C)C)n5)c(F)c4)c23)C1 [Example 156, 3-(5-tert-butyl-1,2,4-oxadiazol-3-yl)-1-[2-fluoro-4-(3-{[(3R)-1-(prop-2-enoyl)pyrrolidin-3-yl]amino}-1H-pyrazolo[3,4-b]pyridin-4-yl)phenyl]urea]
14 | 7.50 | – | 7.06 | – | 9.79 | C=CC(=O)N[C@@H]1CCN(c2n[nH]c3nccc(-c4ccc(CNC(=O)c5ccc(C(C)(C)O)cc5)c(F)c4)c23)C1 [Example 325, N-{[2-fluoro-4-(3-{(3R)-3-[(prop-2-enoyl)amino]pyrrolidin-1-yl}-1H-pyrazolo[3,4-b]pyridin-4-yl)phenyl]methyl}-4-(2-hydroxypropan-2-yl)benzamide]
15 | 6.59 | 429 | 6.27 | > 8.00 | 9.22 | C[C@H]1CC[C@@H](Nc2n[nH]c3nccc(-c4ccc(CNC(=O)c5noc(C(C)(C)C)n5)c(F)c4)c23)CN1C=O [Example 68, 5-tert-butyl-N-{[2-fluoro-4-(3-{[(3R,6S)-1-formyl-6-methylpiperidin-3-yl]amino}-1H-pyrazolo[3,4-b]pyridin-4-yl)phenyl]methyl}-1,2,4-oxadiazole-3-carboxamide]
16 | 6.62 | – | 6.92 | – | 8.98 | C=CC(=O)N1CC[C@@H](Nc2n[nH]c3nccc(-c4ccc([C@H](C)NC(=O)c5noc(C(C)(C)C)n5)c(F)c4)c23)C1 [Example 303, 5-tert-butyl-N-{(1S)-1-[2-fluoro-4-(3-{[(3R)-1-(prop-2-enoyl)pyrrolidin-3-yl]amino}-1H-pyrazolo[3,4-b]pyridin-4-yl)phenyl]ethyl}-1,2,4-oxadiazole-3-carboxamide]
